Laboratory results: patent US20030109582A1, “Methods and compositions for stimulating secretions from paneth cells” (priority 2001, published 2003)

Assays:
[1] = system: Human Paneth cells (isolated intact human crypts from ileum); secretions tested on Salmonella typhimurium phoP-; assay: human Paneth cell secretion assay (bactericidal activity of crypt secretions); type: cell-based; conditions: for % Bacterial Cell Killing: S. typhimurium
Source text: An assay was developed utilizing Human Paneth cells, obtained from biopsy material. Substances were screened in vitro, by exposing the isolated human tissue material briefly, and assessing the release of antibiotic activity.
A human Paneth cell secretion assay was developed using isolated intact human crypts from ileum obtained after bowel surgery, following published techniques. About 700 isolated crypts obtained by disruption with EDTA, as estimated using a hemocytometer, were transferred into microfuge tubes. Crypts were then incubated in minimal essential media containing non-essential amino acids, with or without various substances (such as isoleucine) in a total volume of 0.5 ml for 30 min or 1 hour at 37° C. After incubation the tissue suspension was spum, and the supernatants collected 10 microliter aliquots were then mixed with either 500 or 1000 colony forming units (cfu) of Salmonella typhimurium phoP- and incubated for 1 hour at 37° C. Surviving bacteria were quantitated by plating on nutrient agar. Bactericidal assays were conducted in triplicate. Data were expressed as the percent bacteria killed under experimental conditions relative to those recovered from controls.

Crohn's disease patients = assay: L-isoleucine administration to Crohn's disease patients (CDAI, abdominal symptoms); type: in vivo, human; conditions: Four grams/day oral, 4 weeks
Description: L-isoleucine was administered to nine volunteer Crohn's disease patients with mild abdominal symptoms. Four grams/day of powdered L-isoleucine divided into two doses was orally administered for 4 weeks. The CDAI (Crohn's disease activity index—Best W, Beckel J, Singleton J, Kern F J, Development of a Crohn's Disease Activity Index: National Cooperative Crohn's Disease Study. Gastroenterology 1976; 70:439-44) was calculated at the beginning and following the fourth week of the L-isoleucine administration period. All medication regiments were fixed throughout the study period.

fecal Lactobacilli = assay: population density of viable Lactobacilli in stools of individuals with Crohn's disease; type: in vivo, human; conditions: after 1 week of L-isoleucine administration (dosed as in Example 2) added to low-residual formula diet; 9 hospitalized Crohn's disease individuals
Description: The population density of viable Lactobacilli in the stools of a group of 9 hospitalized individuals with Crohn's disease was measured before and after a course of L-isoleucine administration. Subjects in this group had been supported nutritionally exclusively by total parenteral nutrition (TPN) for more than one month. One week after a low-residual formula diet was introduced, L-isoleucine was added to the diet (dosed as in Example 2) during the fmal week of hospitalization. Yogurt and other fermented products were restricted as were antibiotics.

SMILES: CC[C@H](C)[C@H](N)C(=O)O [isoleucine, L(+)isoleucine]
- Bactericidal activity in secretions against S. typhimurium ([1]; crypts exposed to 250 microgram/ml for 1 hour): detected
- % Bacterial Cell Killing ([1]; crypts exposed to L(+)isoleucine 250 microgram/ml for 1 hour, relative to controls): 63.7%
- Surviving Bacteria ([1]; crypts exposed to L(+)isoleucine 250 microgram/ml for 1 hour, supernatant incubated with S. typhimurium 1 hour): 140 ± 23
- isoleucine-induced secretion effect, dose dependence ([1]; human Paneth cells, Salmonella typhimurium killing): dose dependent
- % Bacterial Cell Killing ([1]; isoleucine 5 μg/ml, 30 minutes): 4.1%
- % Bacterial Cell Killing ([1]; isoleucine 50 μg/ml, 30 minutes): 22.5%
- % Bacterial Cell Killing ([1]; isoleucine 500 μg/ml, 30 minutes): 51.7%
- frequency of diarrhea (Crohn's disease patients; Crohn's disease patients): gradually decreased
- stool consistency (Crohn's disease patients; Crohn's disease patients): improved
- mean CDAI at fourth week (Crohn's disease patients; two doses, nine Crohn's disease patients, mean CDAI at beginning 120): 90
- mean concentration of fecal Lactobacilli (fecal Lactobacilli): significantly increased
